Columns and labels:
Type in all cases: in vivo
[1] = tested on: Rhopalosiphum padi (Bird Cherry Oat Aphid); assay: Activity against Rhopalosiphum padi, barley, seed treatment, mixed population, systemic/feeding activity, preventive
Protocol: Example B5: Activity Against Rhopalosiphum padi (Bird Cherry Oat Aphid, Barley) (Seed Treatment) Mixed Population, Systemic/Feeding Activity, Preventive
The barley seeds were coated with the active ingredients as described in the formulation example F9 above.
A treated barley seed was sown in a 350 ml pot filled with soil. Two weeks after sowing the barley seedling was infested with an aphid population of mixed stages. After an incubation period of seven days the grade of efficacy was estimated and expressed in percentage.
Activity against Rhopalosiphum padi (Bird Cherry Oat Aphid, barley) (seed treatment) mixed population, systemic/feeding activity, preventive: […]

[2] = tested on: Bemisia tabaci; assay: whole plant or invertebrate; conditions: foliar, 168 h, cotton leaf discs sprayed, adult white flies, 7 DAT
Protocol: Example B3: Activity Against Bemisia tabaci, (Adults on Cotton, Contact, Preventative)
(§1) Cotton leaf discs are placed on agar in a 24-well microtiter plate and sprayed with test solutions. After drying, the leaf discs are infested with adult white flies. After an incubation period of 7 DAT, samples are checked for mortality and special effects (e.g. phytotoxicity).

[3] = tested on: Myzus persicae (Green Peach Aphid); assay: whole plant or invertebrate; conditions: foliar, 144 h, sunflower leaf discs sprayed, 6 days incubation
Protocol: Example B1: Activity Against Myzus persicae (Green Peach Aphid) (Mixed Population, Feeding/Residual Contact Activity, Preventive)
as §1, with “Sunflower” for “Cotton”, “were” for “are”, “an aphid population of mixed ages.” for “adult white flies.”, “6 days,” for “7 DAT,”

[4] = tested on: Myzus persicae (Green Peach Aphid); assay: whole plant or invertebrate; conditions: 144 h, pea seedlings, roots in test solution, 6 days after introduction
Excerpt: Example B2: Activity Against Myzus persicae (Green Peach Aphid) (Mixed Population, Systemic/Feeding Activity, Curative)
Pea seedlings, infested with an aphid population of mixed ages, were placed with the roots directly in the test solutions. 6 days after introduction, samples were checked for mortality and special effects on the plant.

Row | Compound | Mortality (%) ([1]; 0.01 mg ai/seed) | Mortality (%) ([1]; 0.03 mg ai/seed) | Mortality (%) ([1]; 0.1 mg ai/seed) | Mortality (%) ([1]; 0.3 mg ai/seed) | Mortality (%) ([1]; 1 mg ai/seed) | mortality at 200 ppm [2] [%] | mortality at 200 ppm [3] [%] | mortality at 24 ppm [4] [%]
1 | Cc1c(C(=O)N(C)c2cccnc2)cnn1-c1ncccc1Cl [Compound 877, reference compound] | 0 | 0 | 42 | 63 | 84 |  |  | 
2 | Cc1cccnc1-n1ncc(C(=O)N(C)c2cccnc2)c1C [Compound 1.001, 1-(3-methylpyridin-2-yl)-5-methyl-1H-pyrazole-4-carboxylic acid methyl-pyridin-3-yl-amide] | 70 | 85 | 95 | 99 | 99 | > 80 | ≥ 80 | > 80
3 | CCc1cccnc1-n1ncc(C(=O)N(C)c2cccnc2)c1C [Compound 1.025, 1-(3-ethyl-2-pyridyl)-N,5-dimethyl-N-(3-pyridyl)pyrazole-4-carboxamide] |  |  |  |  |  |  | ≥ 80 | 
4 | Cc1cc(C#N)cnc1-n1ncc(C(=O)N(C)c2cccnc2)c1C [Compound 1.004, 1-(5-cyano-3-methyl-2-pyridyl)-N,5-dimethyl-N-(3-pyridyl)pyrazole-4-carboxamide] |  |  |  |  |  |  | ≥ 80 | > 80
5 | Cc1cccnc1-n1ncc(C(=O)N(C)c2ccc[n+]([O-])c2)c1C [Compound 1.079, 1-(3-methylpyridin-2-yl)-5-methyl-1H-pyrazole-4-carboxylic acid methyl-pyridin-N-oxide-3-yl-amide] |  |  |  |  |  |  | ≥ 80 | > 80
6 | Cc1cc(Br)cnc1-n1ncc(C(=O)N(C)c2cccnc2)c1C [Compound 1.003, 1-(5-bromo-3-methyl-2-pyridyl)-N,5-dimethyl-N-(3-pyridyl)pyrazole-4-carboxamide] |  |  |  |  |  |  | ≥ 80 | 
7 | Cc1ccc(Cl)nc1-n1ncc(C(=O)N(C)c2ccnnc2)c1C [Compound 1.230, 1-(6-chloro-3-methyl-2-pyridyl)-N,5-dimethyl-N-pyridazin-4-yl-pyrazole-4-carboxamide] |  |  |  |  |  | > 80 | ≥ 80 | 
